Article PMC11600623 (Clinical and Translational Science, 2024)
Where two headings read alike, the source gives them in different places. Values belong to the compound of their own block, whether it stands above or below them.

Columns and labels:
Type in all cases: in vivo, human
[1] = Population PK model of quizartinib
[2] = Influence of covariates on steady-state exposure metrics
[3] = Population PK model of AC886
[4] = newly diagnosed AML vs R/R AML reference
[5] = residual unexplained variability
[6] = final model, typical subject, f MET fixed to 0.5
[7] = newly diagnosed AML vs R/R AML and non-AML reference

IIV D1 [1]: 82 % coefficient of variation (CV) | IIV Q 1,quiz [1]: 69 % CV | IIV (CV) for F rel ([1]; AML patients): 44% | Age effect on V p1,quiz ([1]; exponential covariate model): 0.0152 1/year | D1 (duration of zero-order input to depot compartment) ([1]; final model): 0.710 h | Shape box-cox parameter for IIV on F rel for AML patients ([1]; final model): −1.28 | T lag (absorption lag time) ([1]; final model): 0.196 h | k a (first-order absorption rate constant) ([1]; final model): 1.10 h⁻¹ | Fractional change in CLquiz for Black race ([1]; final model covariate effect): −0.261 | Fractional change in CLquiz with strong CYP3A inhibitors ([1]; final model covariate effect): −0.301 | Fractional change in F rel with moderate CYP3A inhibitors ([1]; final model covariate effect): 0.116 | Fractional change in F rel with strong CYP3A inhibitors ([1]; final model covariate effect): 0.273 | Fractional change in V c,quiz for females ([1]; final model covariate effect): −0.169 | Fractional change in k a for non-AML subjects ([1]; final model covariate effect): −0.188 | Q 1,quiz (apparent intercompartmental clearance 1) ([1]; final model, typical subject): 40.7 L/h | Q 2,quiz (apparent intercompartmental clearance 2) ([1]; final model, typical subject): 0.757 L/h | V p1,quiz (apparent peripheral volume of distribution 1) ([1]; final model, typical subject): 312 L | V p2,quiz (apparent peripheral volume of distribution 2) ([1]; final model, typical subject): 91.9 L | Vd ([1]; human, plasma, oral): 371 L | clearance ([1]; human, plasma, oral): 111 mL/min | IIV D1 ([1]; interindividual variability): 0.821 CV | IIV F rel AML patients ([1]; interindividual variability): 0.444 CV | IIV F rel non-AML subjects ([1]; interindividual variability): 0.256 CV | IIV Q 1,quiz ([1]; interindividual variability): 0.691 CV | IIV T lag ([1]; interindividual variability): 0.647 CV | IIV V c,quiz ([1]; interindividual variability): 0.186 CV | IIV k a ([1]; interindividual variability): 0.423 CV | Fractional change in F rel during Consolidation [1, 4]: −0.192 | Fractional change in F rel during Continuation [1, 4]: 0.418 | Fractional change in F rel during Induction [1, 4]: −0.419 | F rel for non-AML subjects ([1]; relative to AML patients): 1.73 | Additive RUV log scale AML patients [1, 5]: 0.440 CV | Additive RUV log scale non-AML subjects [1, 5]: 0.102 CV | Increase of exposure ([2]; concomitant administration of strong CYP3A inhibitors): ~2 fold | Exposure in non-AML subjects compared to AML patients ([2]; higher in non-AML subjects): approximately 1.7 fold | Increase of steady-state area under the curve during the dosing interval (AUCss) ([2]; use of strong CYP3A inhibitors): 1.8 fold
SMILES: CC(C)(C)c1cc(NC(=O)Nc2ccc(-c3cn4c(n3)sc3cc(OCCN5CCOCC5)ccc34)cc2)no1 [quizartinib]

IIV (CV) for CLAC886 ([3]; AML patients): 74% | Fractional change in CLAC886 for Black race ([3]; final model covariate effect): 0.488 | Fractional change in CLAC886 for non-AML subjects ([3]; final model covariate effect): 0.843 | Fractional change in CLAC886 with strong CYP3A inhibitors ([3]; final model covariate effect): 0.298 | Fractional change in V c,AC886 with strong CYP3A inhibitors ([3]; final model covariate effect): 2.79 | Q AC886 (apparent intercompartmental clearance) ([3]; final model, typical subject): 3.76 L/h | V p,AC886 (apparent peripheral volume of distribution) ([3]; final model, typical subject): 68.5 L | CLAC886 (apparent CL of AC886) [3, 6]: 4.61 L/h | V c,AC886 (apparent central volume of distribution) [3, 6]: 8.93 L | IIV CLAC886 AML patients ([3]; interindividual variability): 0.740 CV | IIV CLAC886 non-AML subjects ([3]; interindividual variability): 0.516 CV | IIV V c,AC886 ([3]; interindividual variability): 1.36 CV | Fractional change in f MET during Consolidation [3, 7]: 0.272 | Fractional change in f MET during Continuation [3, 7]: −0.249 | Fractional change in f MET during Induction [3, 7]: 0.715 | Additive RUV log scale AML patients [3, 5]: 0.452 CV | Additive RUV log scale non-AML subjects [3, 5]: 0.312 CV | Change of exposure compared to all other race categories ([2]; Black race, median difference): ~0.7 fold
SMILES: CC(C)(CO)c1cc(NC(=O)Nc2ccc(-c3cn4c(n3)sc3cc(OCCN5CCOCC5)ccc34)cc2)no1 [AC886]
Interindividual variability of systemic clearance ([3]; abstract statement for both moieties): approximately 70 % coefficient of variation
